According to patent US20100184814A1, “Ester Derivatives of Losartan, Methods for Their Preparation, and Uses Thereof” (priority 2009, published 2010):

Tests used:
[1] = Pharmacokinetic study: plasma compound (II) (Losartan) after oral dosing of compounds of formula (I); type: in vivo; details: male Kumin mice, fasted, single oral gavage dose 5.8 mg/kg referenced to compound (II)
Description: Pharmacokinetic studies. The pharmacokinetics (PK) of compounds of formula (I) as well as Losartan were investigated in male Kumin mice. There were six mice per group and nine groups for this study. All mice were fasted overnight, following a single dose of 5.8 mg/kg referenced to the amount of metabolite, the compound of formula (2) from every compound of formula (1) studied. All mice were given dosing orally by gavage. The dosing vehicle used was propyleneglycol:water (1:1). The mice were fed 4 h post dose. Blood samples were collected at 0, 15, 30, 45 min, 1, 2, 4, 7, 10 and 15 h oral dosing. Approximately […] of blood was collected from the jugular vein in tubes containing EDTA, and plasma was obtained by centrifugation. Plasma samples were stored at −20° C. until analysis. Samples were analyzed for the compound of formula (II), (1-((2′-(2H-tetrazol-5-yl)biphenyl-4-yl)methyl)-2-butyl-4-chloro-1H-imidazol-5-yl)methanol, by LC/MS/MS.

[2] = background statement on Losartan; cited from earlier work
[3] = compound (II) (Losartan) measured in plasma

SMILES	Bioavailability of compound (II) [1, 3] [%]	Half-time (T1/2) of compound (II) [1, 3] [h]	Cmax ([1]; compound (II) (Losartan) measured in plasma by LC/MS/MS, read-out: Maximum Blood Concentration (Cmax) of compound (II)) [nM]	bioavailability [2]	half-life [2] [h]
CCCCc1nc(Cl)c(COC(=O)CN)n1Cc1ccc(-c2ccccc2-c2nn[nH]n2)cc1 [Compound (118), (S)-(1-((2′-(2H-tetrazol-5-yl)biphenyl-4-yl)methyl)-2-butyl-4-chloro-1H-imidazol-5-yl)methyl 2-aminoacetate]	19	1.9	504		
CCCCc1nc(Cl)c(CO)n1Cc1ccc(-c2ccccc2-c2nn[nH]n2)cc1 [Losartan, (1-((2′-(2H-tetrazol-5-yl)biphenyl-4-yl)methyl)-2-butyl-4-chloro-1H-imidazol-5-yl)methanol]				25-35%	1 to 2
